Assay results published in patent US20240238365A1, “AMYLOID-Beta AGGREGATION INHIBITOR, PHARMACEUTICAL COMPOSITION FOR AMYLOID-Beta AGGREGATION DISEASES, AND USE APPLICATION OF SAME” (O-FORCE CO., LTD., priority 2021, published 2024).
“Also recorded” adds a separate entry of the source. Where no end group is shown, it is not given here.

Tests used:
Aß25-35 aggregates [1] = target: T1, Aß25-35 aggregates (Homo sapiens, UniProt P05067); assay: Dissociation of Aß25-35 aggregates checked by scanning electron microscope; assay type: biochemical; conditions: pre-formed aggregates; 100 μL of 0.05-mmol/L YS-11 or 1-mmol/L YS-16 solution added, 37° C., 5 days; versus no peptide
Procedure: A reaction solution with the following composition was prepared in a 1.5-mL tube (manufactured by Eppendorf) and incubated at 37° C. for 18 hours to form aggregates of the Aß25-35. Then, 100 μL of a peptide YS solution at a predetermined concentration was added to the reaction solution, and the resultant mixture was further incubated at 37° C. for 5 days. A 0.05-mmol/L YS-11 solution, a 1-mmol/L YS-16 solution, and a 1-mmol/L YS-6 solution were used as the peptide YS solution, and MilliQ water was used instead of the peptide YS solution as a control. After the incubation, centrifugation (12,000 rpm, 10 minutes) was performed to collect a precipitate. The precipitate was treated in the same manner as in Example 1(3) above, and was then observed under a scanning electron microscope. [table]

Aß25-35 aggregates [2] = target: T1, Aß25-35 aggregates; assay: Peptide YS concentration versus ability to dissociate Aß25-35 aggregates (ThT fluorescence); assay type: biochemical; conditions: 37° C.; for ability to dissociate Aß25-35 aggregates: 5 days after aggregate formation
Procedure: First, a reaction solution with the following composition was prepared, was dispensed into wells such that the amount of the reaction solution per well was 200 μL, and was incubated at 37° C. for 18 hours to form aggregates of the Aß25-35 in the reaction solution. 100 μL of an X-mmol/L peptide YS solution (YS-11 or YS-16) was further added to the reaction solution, and the resultant mixture was incubated at 37° C. for 5 days. The concentration (X mmol/L) of the peptide YS in the peptide YS solutions was set to […]. After the incubation, 10 μL of 2-mmol/L ThT was added to each well, and the fluorescence intensity was measured using the measurement device (n=3). The measurement wavelengths were set such that the excitation wavelength (ex) was 444 nm and the fluorescence wavelength (em) was 480 nm. As a control, a reaction solution (Aß25-35) to which water had been added instead of the peptide YS was also measured in the same way. [table]

Aß25-35 [3] = target: T2, Aß25-35 (Homo sapiens, UniProt P05067); assay: IC50 of YS peptide against Aß25-35 aggregation (ThT fluorescence); assay type: biochemical; conditions: 37° C., ThT added 2 hours after start of incubation, blank corrected, n=3
Procedure: Reaction solutions with different compositions, namely those with the following compositions (A, B, C, and D), were prepared and dispensed into wells such that the amount of the reaction solution per well was 200 μL. The concentration (X mmol/L) of the peptide YS (YS-11 or YS-16) in the YS solution to be added to the reaction solutions was set to 0.01, 0.05, 0.1, 0.5, and 1 mmol/L. The reaction solutions were incubated at 37° C., and 10 μL of 2-mmol/L ThT (reagent name “Thioflavine T”, manufactured by FUJIFILM Wako Pure Chemical Corporation) was added to each well 2 hours after the start of the incubation. Then, the fluorescence intensity was measured using the measurement device (n=3). The measurement wavelengths were set such that the excitation wavelength (ex) was 444 nm and the fluorescence wavelength (em) was 480 nm. [table] […] In FIG. 2, the vertical axes indicate the fluorescence intensity (unit: FI), and the horizontal axes indicate the concentration of the peptide YS (unit: μmol/L).

Aß25-35 [4] = target: T2, Aß25-35; assay: Aggregation inhibition checked by scanning electron microscope; assay type: biochemical; conditions: 0.1 mM peptide, 0.1 mM Aß25-35, 37° C., 4 hours, versus no peptide YS
Procedure: A reaction solution with the following composition was prepared in a 1.5-mL tube (manufactured by Eppendorf). After incubating at 37° C. for 4 hours, the reaction solution was centrifuged (12,000 rpm, 10 minutes), and a precipitate was collected. The collected precipitate was washed as follows: 200 μL of MilliQ water was added to the precipitate and the resultant mixture was centrifuged again (12,000 rpm, 10 minutes). This washing treatment was performed three times. Then, 100 μL of a 1% phosphotungstic acid solution was added to the collected precipitate. After the resultant mixture was left to stand for 5 minutes at room temperature, the precipitate was collected through centrifugation (12,000 rpm, 10 minutes), was washed by adding 200 μL of MilliQ water thereto, and was collected through centrifugation (12,000 rpm, 10 minutes). 100 μL of MilliQ water was added to the precipitate, and a suspension was formed using a Vortex mixer. The suspension was added to a glass slide and dried, followed by observation under a scanning electron microscope. [table]

[5] = tested on: ICR mice to which Aß25-35 had been administered; assay: Y-maze short-term memory test in mice given Aß25-35; assay type: in vivo
Procedure: The aggregation inhibiting peptide was further administered to mice to which the Aß25-35 had been administered, and then the effects of the aggregation inhibiting peptide was checked.
The Aß25-35 was dissolved in a saline solution to prepare a 3-mmol/L Aß25-35 solution. The Aß25-35 and the YS-11 were dissolved in a saline solution to prepare a mixed solution containing the Aß25-35 at a concentration of 3 mmol/L and the YS-11 at a concentration of 3 mmol/L. The YS-11 was dissolved in a saline solution to prepare a 10-mg/mL YS-11 solution. A saline solution (Saline) was used as a control.
ICR mice (6-week old) were prepared and divided into an Aß25-35 administration group (n=15), a control (Saline) administration group (n=15), a mixed solution administration group (n=6), and a peptide YS administration group (n=7).
The administration schedule was as follows: ventricular administration was performed on Day 1, and nasal administration was performed on Day 14, Day 17, Day 20, and Day 23. A microsyringe was used for the ventricular administration, and a Pipetman was used for the nasal administration. Specifically, the administration was performed on each administration group as follows. […]
Then, on Day 14 and Day 28, the short-term memory was evaluated using a Y-maze. […]

Aß25-35 [6] = target: T2, Aß25-35; assay: Inhibition of Aß25-35 aggregation, thioflavin T (ThT) fluorescence; assay type: biochemical; conditions: 0.1 mM peptide YS, 0.1 mM Aß25-35, 37° C., incubation 4 hours, n=3
Procedure: The peptides YS-11, YS-15, and YS-16 were used as the peptides YS of the examples. Each of the peptides was dissolved in MilliQ water to prepare three types of 1-mg/mL YS solutions.
An Aß-derived fragment peptide was used for aggregation of Aß. Aß25-35, which has high aggregability, was selected as the fragment peptide. The Aß25-35 is a peptide (SEQ ID NO: 7: GSNKGAIIGLM) constituted by 11 amino acid residues consisting of the twenty-fifth to thirty-fifth amino acid residues in the full length sequence of human-derived Aß (SEQ ID NO: 6). The Aß25-35 was dissolved in MilliQ water to prepare a 1-mmol/L Aß25-35 solution.
The fluorescent dye thioflavin T (ThT) binds to aggregates and emits strong fluorescence upon binding, and thus the increase or inhibition of aggregation can be determined by measuring the fluorescence intensity. Thus, the inhibition of aggregation of the Aß25-35 by each peptide YS was checked using ThT.
Specifically, a reaction solution with the following composition was prepared and dispensed into wells such that the amount of the reaction solution per well was 200 μL. After the reaction solution was incubated at 37° C. for a predetermined period of time (0 or 4 hours), 10 μL of 2-mmol/L ThT (reagent name “Thioflavine T”, manufactured by FUJIFILM Wako Pure Chemical Corporation) was added to each well, and the fluorescence intensity was measured using a measurement device (product name “Cytation5”, manufactured by BioTek) (n=3). The measurement wavelengths were set such that the excitation wavelength (ex) was 444 nm and the fluorescence wavelength (em) was 480 nm. As a control, a reaction solution to which water had been added instead of the peptide YS was also measured in the same way.

Aß25-35 aggregates [7] = target: T1, Aß25-35 aggregates; assay: Ability to dissociate pre-formed Aß25-35 aggregates (ThT fluorescence); assay type: biochemical; conditions: aggregates formed 18 hours at 37° C., then 100 μL of 1-mmol/L peptide added, 5 days
Procedure: First, a reaction solution with the following composition was prepared and incubated at 37° C. for 18 hours to form aggregates of the Aß25-35 in the reaction solution. 100 μL of a 1-mmol/L peptide YS (YS-5 or YS-16) was further added to the reaction solution, and the resultant mixture was incubated at 37° C. for 5 days. After the incubation, the reaction solution was dispensed into wells such that the amount of the reaction solution per well was 200 μL. Furthermore, 10 μL of 2-mmol/L ThT was added to each well, and the fluorescence intensity was measured using the measurement device (n=3). The measurement wavelengths were set such that the excitation wavelength (ex) was 444 nm and the fluorescence wavelength (em) was 480 nm. As a control, a reaction solution to which water had been added instead of the peptide YS was also measured in the same way. [table]

Row | Sequence | amount of fibrous aggregates under scanning electron microscope (Aß25-35 aggregates [1]) | ability to dissociate Aß25-35 aggregates (Aß25-35 aggregates [2]; final concentration range of 0.005 to 0.1 mmol/L) | IC50 (Aß25-35 [3]) [nM] | fibrous material / formation of aggregates under scanning electron microscope (Aß25-35 [4]) | alternation rate in Y-maze ([5]; Day 14, ventricular coadministration on Day 1 of 9 nmol Aß25-35 and 9 nmol YS-11 (mixed solution), n=6) | alternation rate in Y-maze ([5]; Day 28, Aß25-35 ventricular on Day 1, then YS-11 nasal 74 nmol on Day 14, 17, 20, 23, n=7) | fluorescence intensity compared with the control (Aß25-35 without peptide YS) (Aß25-35 [6]) | aggregates dissociated (control Aß25-35 aggregates taken as 100%) (Aß25-35 aggregates [2]; final concentration of 0.1 mmol/L, 5 days) [%] | ability to dissociate Aß25-35 aggregates (Aß25-35 aggregates [2]; final concentration range of 0.01 to 0.1 mmol/L) | control aggregates dissociated (Aß25-35 aggregates [7]) [%] | fluorescence intensity relative to the control (Aß25-35) (Aß25-35 aggregates [7]) [%]
1 | RETLVYLTHLD [YS-11, RETLVYLTHLD] | a further decrease in the amount of fibrous aggregates | excellent dissociating ability | 3600 | decreased very significantly | as high as that of the control group | as high as that of the control group | significantly lower; also recorded: considerably lower |  |  |  | 
2 | RETLVYLTHLDYDDTE [YS-16, RETLVYLTHLDYDDTE] | a decrease in the amount of fibrous aggregates |  | 600 | substantially no fibrous material was observed |  |  | significantly lower; also recorded: considerably lower | 48 | excellent dissociating ability in a concentration-dependent manner | 50 | 50
3 | YKNMRETLVYLTHLD (aggregation inhibitor peptide) [YS-15] |  |  |  |  |  |  | significantly lower |  |  |  | 
